Test results reported in patent US5288709A, “Erythromycin derivatives” (priority 1991, dated 1994).
In brackets after ≈: the same amount, converted by molar mass. Read-outs that look alike come from different tables or passages of the source.

Tests used:
Experiment in all cases: In-vitro antimicrobial activity primary screen (agar dilution MIC)
Assay type in all cases: cell-based
[1] = test system: Pseudomonas aeruginosa A5007
Outline: (§1)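 Growth inhibition was scored on Brain Heart Infusion agar after 20-24 h incubation at 35-37° C; the MIC is the lowest tested concentration yielding no growth, a slight haze or sparsely isolated colonies on the inoculum spot.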

[2] = test system: Streptococcus pyrogenes EES61; details: BHI agar, 20-24 h
Outline: as §1

Escherichia coli SS = details: BHI agar, 20-24 h
Outline: as §1

[3] = test system: Staphylococcus aureus 45 RAR2; details: Staphylococcus aureus, 45RAR2, 24 h, BHI agar, 20-24 h
Outline: as §1

[4] = test system: Klebsiella pneumoniae ATCC 8045
Outline: as §1

[5] = test system: Pseudomonas aeruginosa BMH10; details: Pseudomonas aeruginosa, BMH10, 24 h, BHI agar, 20-24 h
Outline: as §1

Pseudomonas cepacia 2961 = details: BHI agar, 20-24 h
Outline: as §1

[6] = test system: Staphylococcus aureus NCTC 10649; details: NCTC10649, BHI agar, 20-24 h, read-out: MIC
Outline: as §1

[7] = test system: Staphylococcus aureus ATCC 6538P; details: ATCC6538P, BHI agar, 20-24 h
Outline: as §1

[8] = test system: Micrococcus luteus ATCC 9341; details: 20-24 h
Outline: as §1

[9] = test system: Streptococcus pyrogenes 2548 INDUC; details: BHI agar, 20-24 h
Outline: as §1

[10] = test system: Streptococcus bovis A5169; details: Streptococcus equinus, A5169, 24 h, BHI agar, 20-24 h
Outline: as §1

Staphylococcus aureus 45 = details: BHI agar, 20-24 h
Outline: as §1

Escherichia coli DC-2 = test system: Escherichia coli DC-2
Outline: as §1

[11] = test system: Micrococcus luteus ATCC 4698; details: 20-24 h
Outline: as §1

[12] = test system: Enterobacter aerogenes ATCC 13048; details: Klebsiella aerogenes
Outline: as §1

[13] = test system: Providencia stuartii CMX 640
Outline: as §1

[14] = test system: Staphylococcus epidermidis 3519; details: BHI agar, 20-24 h
Outline: as §1

[15] = test system: Staphylococcus aureus 642A; details: BHI agar, 20-24 h, read-out: MIC
Outline: as §1

[16] = test system: Staphylococcus aureus A5177; details: Staphylococcus aureus, A5177, 24 h
Outline: as §1

Escherichia coli JUHL = test system: Escherichia coli JUHL
Outline: as §1

[17] = test system: Streptococcus agalactiae CMX 508; details: 20-24 h
Outline: as §1

Escherichia coli H560 = details: Escherichia coli, H560, 24 h
Outline: as §1

[18] = test system: Enterococcus faecium ATCC 8043
Outline: as §1

[19] = test system: Pseudomonas aeruginosa K799/WT
Outline: as §1

[20] = test system: Staphylococcus aureus CMX 553; details: Staphylococcus aureus, CMX553, 24 h, BHI agar, 20-24 h, read-out: MIC
Outline: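 MIC is read as the lowest compound level yielding no growth, slight haze or sparse colonies on the inoculum spot, relative to a drug-free plate. Strains were replicator-inoculated (1:100 dilution) onto BHI agar plates holding twelve dilutions and held at 35-37 °C for 20-24 h, with erythromycin A as comparator.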

Acinetobacter SP CMX 669 = details: Acinetobacter, SPCMX669, 24 h, Acinetobacter SP CMX 669; BHI agar, 20-24 h
Outline: as §1

[21] = test system: Pseudomonas aeruginosa K799/61; details: Pseudomonas aeruginosa K799/61, BHI agar, 20-24 h
Outline: as §1

[22] = Pseudomonas aeruginosa, A5007, 24 h
[23] = Klebsiella pneumoniae, ATCC8045, 24 h
[24] = Burkholderia cepacia, 2961, 24 h
[25] = ATCC9341, BHI agar, read-out: MIC
[26] = Staphylococcus aureus, 45, 24 h
[27] = Micrococcus luteus, ATCC4698, 24 h, BHI agar
[28] = Providencia stuartii, CMX640, 24 h
[29] = Staphylococcus epidermidis, 3519, 24 h
[30] = Enterococcus faecium, ATCC8043, 24 h
[31] = Pseudomonas aeruginosa, K799/WT, 24 h
[32] = CMX508, BHI agar, read-out: MIC

Compound	MIC [1, 22]	MIC (Escherichia coli SS; read-out: MIC)	MIC [3]	MIC [4, 23]	MIC [5]	MIC (Pseudomonas cepacia 2961; [24])	MIC [6]	MIC ([7]; Staphylococcus aureus, 24 h)	MIC [8, 25]	MIC ([9]; read-out: MIC)	MIC [10]	MIC (Staphylococcus aureus 45; [26])	MIC (Escherichia coli DC-2; Escherichia coli, DC2, 24 h)	MIC [11, 27]	MIC ([12]; ATCC13048, 24 h)	MIC [13, 28]	MIC [14, 29]	MIC [15]	MIC [16]	MIC [20]	other results
CC[C@H]1OC(=O)[C@H](C)[C@@H](O[C@H]2C[C@@](C)(OC)[C@@H](O)[C@H](C)O2)[C@H](C)[C@@H](O[C@@H]2O[C@H](C)C[C@H](N(C)C)[C@H]2O)[C@](C)(OC)C[C@@H](C)C2=C(C)C(=O)[C@]1(C)O2 [Example 27, 9,10-Dihehydro-9-deoxo-11,12-dideoxy-9,12-epoxy-6-O-methyl-11-oxoerythromycin A]	> 100 µg/mL	0.78 µg/mL (≈ 1.07 µM)	0.39 µg/mL (≈ 0.536 µM)	> 100 µg/mL	100 µg/mL (≈ 137 µM)	> 100 µg/mL	0.39 µg/mL (≈ 0.536 µM)	0.39 µg/mL (≈ 0.536 µM)	0.05 µg/mL (≈ 0.0687 µM)	100 µg/mL (≈ 137 µM)	0.05 µg/mL (≈ 0.0687 µM)	3.1 µg/mL (≈ 4.26 µM)	> 100 µg/mL	0.2 µg/mL (≈ 0.275 µM)	> 100 µg/mL	> 100 µg/mL	0.39 µg/mL (≈ 0.536 µM)	0.39 µg/mL (≈ 0.536 µM)	0.39 µg/mL (≈ 0.536 µM)	0.39 µg/mL (≈ 0.536 µM)	MIC ([2]; Streptococcus, EES61, 24 h): 0.05 µg/mL (≈ 0.0687 µM); MIC (Escherichia coli JUHL; Escherichia coli, 24 h): > 100 µg/mL; MIC ([17]; Streptococcus agalactiae, CMX508, 24 h, BHI agar): 0.05 µg/mL (≈ 0.0687 µM); MIC (Escherichia coli H560): 100 µg/mL (≈ 137 µM); MIC [18, 30]: 0.1 µg/mL (≈ 0.137 µM); MIC [19, 31]: > 100 µg/mL
CC[C@H]1OC(=O)[C@H](C)[C@@H](O[C@H]2C[C@@](C)(OC)[C@@H](O)[C@H](C)O2)[C@H](C)[C@@H](O[C@@H]2O[C@H](C)C[C@H](N(C)C)[C@H]2O)[C@](C)(OC)C[C@@H](C)[C@@H]2O[C@@]1(C)C(=O)[C@H]2C [Example 28B]	> 100 µg/mL	0.39 µg/mL (≈ 0.534 µM)	0.39 µg/mL (≈ 0.534 µM)	> 100 µg/mL	50 µg/mL (≈ 68.5 µM)	> 100 µg/mL	0.39 µg/mL (≈ 0.534 µM)	0.39 µg/mL (≈ 0.534 µM)	0.05 µg/mL (≈ 0.0685 µM)	–	0.05 µg/mL (≈ 0.0685 µM)	3.1 µg/mL (≈ 4.25 µM)	> 100 µg/mL	0.1 µg/mL (≈ 0.137 µM)	> 100 µg/mL	> 100 µg/mL	0.39 µg/mL (≈ 0.534 µM)	0.39 µg/mL (≈ 0.534 µM)	0.39 µg/mL (≈ 0.534 µM)	0.39 µg/mL (≈ 0.534 µM)	MIC ([2]; read-out: MIC): 0.02 µg/mL (≈ 0.0274 µM); MIC (Acinetobacter SP CMX 669): 12.5 µg/mL (≈ 17.1 µM); MIC ([21]; Pseudomonas aeruginosa, K799/61, 24 h): 3.1 µg/mL (≈ 4.25 µM); MIC ([9]; Streptococcus, 2548INDUC, 24 h): 3.1 µg/mL (≈ 4.25 µM); MIC (Escherichia coli JUHL; Escherichia coli, 24 h): > 100 µg/mL; MIC [17, 32]: 0.02 µg/mL (≈ 0.0274 µM); MIC (Escherichia coli H560): > 100 µg/mL; MIC [18, 30]: 0.1 µg/mL (≈ 0.137 µM); MIC [19, 31]: > 100 µg/mL
CC[C@H]1OC(=O)[C@H](C)[C@@H](O[C@H]2C[C@@](C)(OC)[C@@H](OC(N)=O)[C@H](C)O2)[C@H](C)[C@@H](O[C@@H]2O[C@H](C)C[C@H](N(C)C)[C@H]2O)[C@](C)(O)C[C@@H](C)[C@@H]2O[C@@]1(C)C(=O)[C@H]2C [Example 31, (9S)-4"-O-Aminocarbonyl-9-deoxo-11,12-dideoxy-9,12-epoxy-11-oxoerythromycinA]	–	–	0.05 µg/mL (≈ 0.0659 µM)	–	50 µg/mL (≈ 65.9 µM)	–	0.05 µg/mL (≈ 0.0659 µM)	–	–	0.78 µg/mL (≈ 1.03 µM)	0.05 µg/mL (≈ 0.0659 µM)	–	–	–	–	–	–	0.05 µg/mL (≈ 0.0659 µM)	50 µg/mL (≈ 65.9 µM)	0.05 µg/mL (≈ 0.0659 µM)	MIC ([1]; Pseudomonas aeruginosa A5007, BHI agar, 20-24 h, read-out: MIC): > 100 µg/mL; MIC ([2]; read-out: MIC): 0.02 µg/mL (≈ 0.0264 µM); MIC (Escherichia coli SS; Escherichia coli, 24 h): 0.2 µg/mL (≈ 0.264 µM); MIC ([21]; read-out: MIC): 1.56 µg/mL (≈ 2.06 µM); MIC ([4]; ATCC8045, Klebsiella pneumoniae ATCC 8045, BHI agar, 20-24 h, read-out: MIC): 100 µg/mL (≈ 132 µM); MIC (Pseudomonas cepacia 2961; Burkholderia cepacia, read-out: MIC): > 100 µg/mL; MIC ([7]; read-out: MIC): 0.05 µg/mL (≈ 0.0659 µM); MIC ([8]; Micrococcus luteus, ATCC9341, 24 h, BHI agar): 0.02 µg/mL (≈ 0.0264 µM); MIC (Staphylococcus aureus 45; read-out: MIC): 0.05 µg/mL (≈ 0.0659 µM); MIC (Escherichia coli DC-2; DC2, Escherichia coli DC-2, BHI agar, 20-24 h, read-out: MIC): 100 µg/mL (≈ 132 µM); MIC ([11]; ATCC4698, BHI agar, read-out: MIC): 0.05 µg/mL (≈ 0.0659 µM); MIC ([12]; ATCC13048, Enterobacter aerogenes ATCC 13048, BHI agar, 20-24 h, read-out: MIC): 100 µg/mL (≈ 132 µM); MIC ([13]; CMX640, Providencia stuartii CMX 640, BHI agar, 20-24 h, read-out: MIC): > 100 µg/mL; MIC ([14]; read-out: MIC): 0.05 µg/mL (≈ 0.0659 µM); MIC (Escherichia coli JUHL; Escherichia coli JUHL, BHI agar, 20-24 h, read-out: MIC): 100 µg/mL (≈ 132 µM); MIC [17, 32]: 0.02 µg/mL (≈ 0.0264 µM); MIC (Escherichia coli H560; Escherichia coli H560, BHI agar, 20-24 h): 50 µg/mL (≈ 65.9 µM); MIC ([18]; ATCC8043, Enterococcus faecium ATCC 8043, BHI agar, 20-24 h, read-out: MIC): 0.05 µg/mL (≈ 0.0659 µM); MIC ([19]; Pseudomonas aeruginosa K799/WT, BHI agar, 20-24 h, read-out: MIC): 100 µg/mL (≈ 132 µM)
